Like-named read-outs stand apart in the source and are kept apart here.
Tests used:
[1] = tested on: 6 different primary HIV-1 isolates; assay: Activity against primary HIV-1 isolates in PBMCs; assay type: cell-based; settings: read-out: activity against primary HIV-1 isolates, range
[2] = Cytotoxic concentration (Example 2); assay type: cell-based; settings: human, MT-4 cells; read-out: cytotoxic concentration (CC50)
[3] = Cytotoxic concentration (Example 2); assay type: cell-based; settings: human, SupT1 cells; read-out: cytotoxic concentration (CC50)
[4] = tested on: CD11b; assay: Cell surface antigen expression by flow cytometry (Table 2); assay type: cell-based, human; settings: CADA 16 μM, 4 days, percentage of positive cells, unit not given
Procedure: (§1) Expression of various other surface antigens was also examined in MT-4 cells, SupT1 cells and PBMCs after incubation with CADA (16 μM) or CADA-free medium at 37° C. for 4 days. After washing with phosphate-buffered saline (PBS) containing 2% FCS(fetal calf serum), the cells were incubated with mAb (as indicated in Table 1) for 20 min at 4° C. Then the cells were washed, fixed with 1% formaldehyde and analyzed by flow cytometry. All mAbs were purchased from Becton-Dickinson (Erembodegem, Belgium).

[5] = tested on: CD71; assay: as above; assay type: cell-based, human; settings: CADA 16 μM, 4 days, percentage of positive cells, unit not given
Procedure: as §1

[6] = tested on: CD28; assay: as above; assay type: cell-based, human; settings: CADA 16 μM, 4 days, percentage of positive cells, unit not given
Procedure: as §1

[7] = tested on: CD5; assay: as above; assay type: cell-based, human; settings: CADA 16 μM, 4 days, percentage of positive cells, unit not given
Procedure: as §1

[8] = tested on: CD45; assay: as above; assay type: cell-based, human; settings: CADA 16 μM, 4 days, percentage of positive cells, unit not given
Procedure: as §1

[9] = tested on: CD2; assay: as above; assay type: cell-based, human; settings: CADA 16 μM, 4 days, percentage of positive cells, unit not given
Procedure: as §1

[10] = tested on: HLA-DR; assay: as above; assay type: cell-based, human; settings: CADA 16 μM, 4 days, percentage of positive cells, unit not given
Procedure: as §1

[11] = tested on: CD26; assay: as above; assay type: cell-based, human; settings: CADA 16 μM, 4 days, percentage of positive cells, unit not given
Procedure: as §1

[12] = tested on: TCRα/β; assay: as above; assay type: cell-based, human; settings: CADA 16 μM, 4 days, percentage of positive cells, unit not given
Procedure: as §1

[13] = tested on: CD3; assay: as above; assay type: cell-based, human; settings: CADA 16 μM, 4 days, percentage of positive cells, unit not given
Procedure: as §1

[14] = tested on: CD57; assay: as above; assay type: cell-based, human; settings: CADA 16 μM, 4 days, percentage of positive cells, unit not given
Procedure: as §1

[15] = tested on: CD25; assay: as above; assay type: cell-based, human; settings: CADA 16 μM, 4 days, percentage of positive cells, unit not given
Procedure: as §1

[16] = tested on: CD8; assay: as above; assay type: cell-based, human; settings: CADA 16 μM, 4 days, percentage of positive cells, unit not given
Procedure: as §1

[17] = tested on: CD45RA; assay: as above; assay type: cell-based, human; settings: CADA 16 μM, 4 days, percentage of positive cells, unit not given
Procedure: as §1

[18] = tested on: CD38; assay: as above; assay type: cell-based, human; settings: CADA 16 μM, 4 days, percentage of positive cells, unit not given
Procedure: as §1

[19] = target: CD4 (Homo sapiens, UniProt P01730); assay: Quantification of the CD4 receptor by antibody binding; assay type: cell-based; design: endogenous in cells; the paragraph deals with MT-4, SupT1 cells and PBMCs; settings: after treatment with CADA
Procedure: Table 4 presents the results for MT-4 cells pretreated with CADA for 1 day at 8.1 μM and then infected with the HIV-1 strain NL4.3 or RF in the presence or absence of CADA. […] As three CD4 binding events are needed to efficiently activate HIV-1 Env trimers (Layne, S. P., et al., Nature 346: 602-605 (1990)), multimeric CD4 binding is required for HIV infection, further confirming that receptor density plays a crucial role in the efficiency of viral infectivity (Platt, E. J., et al., J. Virol. 71: 883-890 (1997)). […] Primary HIV isolates seem to be much more dependent on the level of CD4 expression (Kabat; D., et al., J. Virol. 68:2570-2577 (1994)). […] Although CD4-independent viruses are described (Hofflian, T. L., et al., Proc. Natl. Acad. Sci. U.S.A. 96: 63 59-6364 (1999)), these are much more sensitive to neutralization by antibodies, which explains the rarity of CD4-independent wild-type HIV variants (Kolchinski, P., et al., J. Virol. 75: 204 1-2050 (2001)).

C=C1CN(S(=O)(=O)c2ccc(C)cc2)CCCN(Cc2ccccc2)CCCN(S(=O)(=O)c2ccc(C)cc2)C1 [CADA]
IC50 [1]: 0.002 to 2.3 µM
CC50 [2]: 134 µM
CC50 [3]: 185 µM
CD11b cell surface antigen expression ([4]; MT-4 T-cells): 9.7
CD11b cell surface antigen expression ([4]; PBMCs): 12.3
CD11b cell surface antigen expression ([4]; SupT1 T-cells): 0.6
CD71 cell surface antigen expression ([5]; MT-4 T-cells): 98.8
CD71 cell surface antigen expression ([5]; PBMCs): 27.6
CD71 cell surface antigen expression ([5]; SupT1 T-cells): 33.9
CD28 cell surface antigen expression ([6]; MT-4 T-cells): 6.6
CD28 cell surface antigen expression ([6]; PBMCs): 89.6
CD28 cell surface antigen expression ([6]; SupT1 T-cells): 90.8
CD5 cell surface antigen expression ([7]; MT-4 T-cells): 99.1
CD5 cell surface antigen expression ([7]; PBMCs): 80.6
CD5 cell surface antigen expression ([7]; SupT1 T-cells): 93.9
CD45 cell surface antigen expression ([8]; MT-4 T-cells): 3.57
CD45 cell surface antigen expression ([8]; PBMCs): 98.3
CD45 cell surface antigen expression ([8]; SupT1 T-cells): 99.6
CD2 cell surface antigen expression ([9]; MT-4 T-cells): 2.6
CD2 cell surface antigen expression ([9]; PBMCs): 90.7
CD2 cell surface antigen expression ([9]; SupT1 T-cells): 0.5
HLA-DR cell surface antigen expression ([10]; MT-4 T-cells): 98.7
HLA-DR cell surface antigen expression ([10]; PBMCs): 27
HLA-DR cell surface antigen expression ([10]; SupT1 T-cells): 1.7
CD26 cell surface antigen expression ([11]; MT-4 T-cells): 3.2
CD26 cell surface antigen expression ([11]; PBMCs): 3.2
CD26 cell surface antigen expression ([11]; SupT1 T-cells): 0.3
TCRα/β cell surface antigen expression ([12]; MT-4 T-cells): 1.1
TCRα/β cell surface antigen expression ([12]; PBMCs): 82.3
TCRα/β cell surface antigen expression ([12]; SupT1 T-cells): 1.6
CD3 cell surface antigen expression ([13]; MT-4 T-cells): 5.9
CD3 cell surface antigen expression ([13]; PBMCs): 89.4
CD3 cell surface antigen expression ([13]; SupT1 T-cells): 2.7
CD57 cell surface antigen expression ([14]; MT-4 T-cells): 1.5
CD57 cell surface antigen expression ([14]; PBMCs): 2.3
CD57 cell surface antigen expression ([14]; SupT1 T-cells): 82.4
CD25 cell surface antigen expression ([15]; MT-4 T-cells): 93.3
CD25 cell surface antigen expression ([15]; PBMCs): 35.5
CD25 cell surface antigen expression ([15]; SupT1 T-cells): 1
CD8 cell surface antigen expression ([16]; MT-4 T-cells): 3.5
CD8 cell surface antigen expression ([16]; PBMCs): 25.1
CD8 cell surface antigen expression ([16]; SupT1 T-cells): 92.3
CD45RA cell surface antigen expression ([17]; MT-4 T-cells): 2.0
CD45RA cell surface antigen expression ([17]; PBMCs): 64.3
CD45RA cell surface antigen expression ([17]; SupT1 T-cells): 0.5
CD38 cell surface antigen expression ([18]; MT-4 T-cells): 84.5
CD38 cell surface antigen expression ([18]; PBMCs): 73.2
CD38 cell surface antigen expression ([18]; SupT1 T-cells): 99.1
amount of CD4 Ab bound to the cells [19]: approximately 5,000 /cell
decrease in bound antibody [19]: ~90%

Reference: US20040220164A1, “Triaza compound immunoregulatory agents” (priority 2001, published 2004)
